pIC50: −log10 of the molar value.
These molecules were tested against KDM5B (Homo sapiens (Human), UniProt Q9UGL1) (assay: KDM5B TR-FRET Enzyme Activity Assay). Conditions: LANCE TR-FRET; 5 nM full-length recombinant KDM5B; ten point titration 100000 nM to 5.08 nM.
Type: biochemical
How it was run: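 Full-length KDM5B from Sf21 cells (5 nM) was preincubated 30 min with compound in HEPES pH 7.3 buffer with ascorbate and 2 μM Fe(II). Reaction with 500 nM biotinylated H3K4Me3 peptide and 500 nM α-ketoglutarate ran 60 min. Product was detected by TR-FRET (Eu-anti-H3K4Me1-2/streptavidin-Dylight 650, 665/615 ratio); IC50 came from a 4-parameter fit.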

Chain of KDM5B (Q9UGL1 whole entry): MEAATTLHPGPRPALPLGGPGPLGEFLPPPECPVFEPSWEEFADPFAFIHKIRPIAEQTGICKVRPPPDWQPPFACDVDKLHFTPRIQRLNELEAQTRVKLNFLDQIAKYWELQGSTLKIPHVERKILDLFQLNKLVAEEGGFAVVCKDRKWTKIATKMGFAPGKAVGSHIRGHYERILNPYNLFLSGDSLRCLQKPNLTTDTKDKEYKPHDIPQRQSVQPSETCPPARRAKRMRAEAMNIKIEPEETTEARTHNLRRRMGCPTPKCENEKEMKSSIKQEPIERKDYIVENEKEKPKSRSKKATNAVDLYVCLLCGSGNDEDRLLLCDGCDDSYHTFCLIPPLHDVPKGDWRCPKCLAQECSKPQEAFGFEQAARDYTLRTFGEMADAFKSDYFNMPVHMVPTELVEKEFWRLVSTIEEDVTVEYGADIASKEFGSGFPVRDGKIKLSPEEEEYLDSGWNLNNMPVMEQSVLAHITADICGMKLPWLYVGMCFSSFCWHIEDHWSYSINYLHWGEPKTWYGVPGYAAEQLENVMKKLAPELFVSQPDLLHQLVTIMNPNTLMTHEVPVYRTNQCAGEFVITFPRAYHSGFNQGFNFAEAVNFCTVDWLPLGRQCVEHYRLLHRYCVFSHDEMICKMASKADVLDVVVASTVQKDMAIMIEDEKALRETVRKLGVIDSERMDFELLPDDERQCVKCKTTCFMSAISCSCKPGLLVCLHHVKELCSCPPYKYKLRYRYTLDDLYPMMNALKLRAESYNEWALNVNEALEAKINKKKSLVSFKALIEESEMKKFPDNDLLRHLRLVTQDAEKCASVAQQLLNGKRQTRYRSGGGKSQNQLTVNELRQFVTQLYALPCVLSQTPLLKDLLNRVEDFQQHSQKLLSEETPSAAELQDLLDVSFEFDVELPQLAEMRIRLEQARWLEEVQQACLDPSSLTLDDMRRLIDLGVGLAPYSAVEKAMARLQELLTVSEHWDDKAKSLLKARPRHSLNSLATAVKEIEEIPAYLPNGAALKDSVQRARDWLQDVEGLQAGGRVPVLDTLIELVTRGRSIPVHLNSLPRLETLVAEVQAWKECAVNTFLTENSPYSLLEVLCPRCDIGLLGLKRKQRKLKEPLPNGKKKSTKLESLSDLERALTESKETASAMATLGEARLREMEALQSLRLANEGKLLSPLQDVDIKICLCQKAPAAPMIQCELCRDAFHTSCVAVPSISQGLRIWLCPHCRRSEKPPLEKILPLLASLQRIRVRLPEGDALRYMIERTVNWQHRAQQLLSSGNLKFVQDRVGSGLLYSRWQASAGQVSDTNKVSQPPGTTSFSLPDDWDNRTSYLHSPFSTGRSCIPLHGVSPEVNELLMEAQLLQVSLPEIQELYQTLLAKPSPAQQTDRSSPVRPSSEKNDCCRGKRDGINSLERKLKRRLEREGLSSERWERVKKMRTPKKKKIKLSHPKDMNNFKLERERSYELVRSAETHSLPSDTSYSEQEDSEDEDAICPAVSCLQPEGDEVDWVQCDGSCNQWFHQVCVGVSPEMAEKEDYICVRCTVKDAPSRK

| pIC50 | SMILES |
| --- | --- |
| 7.83 | CC(C)c1c(-c2ccc3ncccc3c2)[nH]c2ncnn2c1=O [Example 11-74, 6-(1-methylethyl)-5-quinolin-6-yl[1,2,4]triazolo[1,5-a]pyrimidin-7(4H)-one] |
| 7.87 | CC(C)c1c(-c2ccc(N3CCS(=O)(=O)CC3)cc2)[nH]c2ncnn2c1=O [Example 11-96, 5-[4-(1,1-dioxidothiomorpholin-4-yl)phenyl]-6-(1-methylethyl)[1,2,4]triazolo[1,5-a]pyrimidin-7(4H)-one] |
| 7.50 | CC(C)c1c(-c2cccc(C(O)C(F)(F)F)c2)[nH]c2ncnn2c1=O (stereo not drawn) [Example 11-54, 6-(1-methylethyl)-5-[3-(2,2,2-trifluoro-1-hydroxyethyl)phenyl][1,2,4]triazolo[1,5-a]pyrimidin-7(4H)-one] |
| 6.18 | CC(C)c1c(-c2ccsc2)[nH]c2ncnn2c1=O [Example 11-138, 6-(1-methylethyl)-5-thiophen-3-yl[1,2,4]triazolo[1,5-a]pyrimidin-7(4H)-one] |
| 6.81 | Cc1[nH]ncc1-c1[nH]c2ncnn2c(=O)c1C(C)C [Example 11-28, 6-(1-methylethyl)-5-(5-methyl-1H-pyrazol-4-yl)[1,2,4]triazolo[1,5-a]pyrimidin-7(4H)-one] |
| 8.13 | CC(C)c1c(-c2cnn(C3CCCCO3)c2)[nH]c2ncnn2c1=O (stereo not drawn) [Example 11-125, 6-(1-methylethyl)-5-[1-(tetrahydro-2H-pyran-2-yl)-1H-pyrazol-4-yl][1,2,4]triazolo[1,5-a]pyrimidin-7(4H)-one] |
| 7.10 | CC(C)c1c(-c2cc(C3CC3)cs2)[nH]c2ncnn2c1=O [Example 11-143, 5-(4-cyclopropylthiophen-2-yl)-6-(1-methylethyl)[1,2,4]triazolo[1,5-a]pyrimidin-7(4H)-one] |
| 8.01 | CC(C)c1c(-c2ccc(N3CCNCC3)cc2)[nH]c2ncnn2c1=O [Example 11-118, 6-(1-methylethyl)-5-(4-piperazin-1-ylphenyl)[1,2,4]triazolo[1,5-a]pyrimidin-7(4H)-one] |
| 8.23 | CC(C)c1c(-c2cnn(Cc3ccccn3)c2)[nH]c2ncnn2c1=O [Example 11-39, 6-(1-methylethyl)-5-[1-(pyridin-2-ylmethyl)-1H-pyrazol-4-yl][1,2,4]triazolo[1,5-a]pyrimidin-7(4H)-one] |
| 6.80 | CC(C)c1c(-c2ccc(F)cc2)[nH]c2ncnn2c1=O [Example 11-11, 5-(4-fluorophenyl)-6-(1-methylethyl)[1,2,4]triazolo[1,5-a]pyrimidin-7(4H)-one] |
| 5.47 | CC(C)c1c(-c2ccccc2Cl)[nH]c2ncnn2c1=O [Example 11-65, 5-(2-chlorophenyl)-6-(1-methylethyl)[1,2,4]triazolo[1,5-a]pyrimidin-7(4H)-one] |
| 7.33 | CC(C)c1c(-c2cccnc2)[nH]c2ncnn2c1=O [Example 11-25, 6-(1-methylethyl)-5-pyridin-3-yl[1,2,4]triazolo[1,5-a]pyrimidin-7(4H)-one] |
| 8.14 | CC(C)c1c(-c2cnn(Cc3ccccc3)c2)[nH]c2ncnn2c1=O [Example 11-9, 5-(1-benzyl-1H-pyrazol-4-yl)-6-(1-methylethyl)[1,2,4]triazolo[1,5-a]pyrimidin-7(4H)-one] |
| 7.78 | CC(C)c1c(-c2ccc(N3CCN(C)CC3)cc2)[nH]c2ncnn2c1=O [Example 11-106, 6-(1-methylethyl)-5-[4-(4-methylpiperazin-1-yl)phenyl][1,2,4]triazolo[1,5-a]pyrimidin-7(4H)-one] |
| 7.26 | CC(C)c1c(-c2ccc(CO)nc2)[nH]c2ncnn2c1=O [Example 11-130, 5-[6-(hydroxymethyl)pyridin-3-yl]-6-(1-methylethyl)[1,2,4]triazolo[1,5-a]pyrimidin-7(4H)-one] |
| 7.76 | CCOC(=O)Cc1ccc(-c2[nH]c3ncnn3c(=O)c2C(C)C)cc1 [Example 11-45, ethyl {4-[6-(1-methylethyl)-7-oxo-4,7-dihydro[1,2,4]triazolo[1,5-a]pyrimidin-5-yl]phenyl}acetate] |
| 7.90 | CC(C)c1c(-c2ccc(C(=O)N(C)C)cc2)[nH]c2ncnn2c1=O [Example 11-86, N,N-dimethyl-4-[6-(1-methylethyl)-7-oxo-4,7-dihydro[1,2,4]triazolo[1,5-a]pyrimidin-5-yl]benzamide] |
| 6.47 | Cc1c(-c2[nH]c3ncnn3c(=O)c2C(C)C)cnn1-c1ccccc1 [Example 11-114, 6-(1-methylethyl)-5-(5-methyl-1-phenyl-1H-pyrazol-4-yl)[1,2,4]triazolo[1,5-a]pyrimidin-7(4H)-one] |
| 7.70 | CC(C)c1c(-c2ccc(C(O)C(F)(F)F)cc2)[nH]c2ncnn2c1=O (stereo not drawn) [Example 11-50, 6-(1-methylethyl)-5-[4-(2,2,2-trifluoro-1-hydroxyethyl)-phenyl][1,2,4]triazolo[1,5-a]pyrimidin-7(4H)-one] |
| 5.90 | Cn1cc(-c2[nH]c3ncnn3c(=O)c2C(C)(C)C)cn1 [Example 11-6, 6-tert-butyl-5-(1-methyl-1H-pyrazol-4-yl)[1,2,4]triazolo[1,5-a]pyrimidin-7(4H)-one] |
| 6.41 | CC(C)c1c(-c2ccccc2F)[nH]c2ncnn2c1=O [Example 11-32, 5-(2-fluorophenyl)-6-(1-methylethyl)[1,2,4]triazolo[1,5-a]pyrimidin-7(4H)-one] |

| pIC50 | SMILES |
| --- | --- |
| 5.46 | CCc1c(C)[nH]c2ncnn2c1=O [Example 8-36, 6-ethyl-5-methyl-[1,2,4]triazolo[1,5-a]pyrimidin-7(4H)-one] |
| 5.53 | O=c1cc(-c2cccc(Cl)c2)[nH]c2ncnn12 [Example 8-29, 5-(3-chlorophenyl)[1,2,4]triazolo[1,5-a]pyrimidin-7(4H)-one] |
| 4.72 | O=c1cc(-c2ccncc2)[nH]c2ncnn12 [Example 8-22, 5-pyridin-4-yl[1,2,4]triazolo[1,5-a]pyrimidin-7(4H)-one] |
| 8.06 | CC(C)c1c(-c2ccc(NS(=O)(=O)C3CC3)cc2)[nH]c2ncnn2c1=O [Example 11-124, N-{4-[6-(1-methylethyl)-7-oxo-4,7-dihydro[1,2,4]triazolo[1,5-a]pyrimidin-5-yl]phenyl}cyclopropanesulfonamide] |
| 7.78 | CC(C)c1c(-c2ccc(CN3CCCCC3)cc2)[nH]c2ncnn2c1=O [Example 11-48, 6-(1-methylethyl)-5-[4-(piperidin-1-ylmethyl)phenyl][1,2,4]triazolo[1,5-a]pyrimidin-7(4H)-one] |
| 7.75 | CC(C)c1c(-c2ccn(C)c2)[nH]c2ncnn2c1=O [Example 11-27, 6-(1-methylethyl)-5-(1-methyl-1H-pyrrol-3-yl)[1,2,4]triazolo[1,5-a]pyrimidin-7(4H)-one] |
| 8.29 | CC(C)c1c(-c2cnn(CC3CC3)c2)[nH]c2ncnn2c1=O [Example 11-14, 5-[1-(cyclopropylmethyl)-1H-pyrazol-4-yl]-6-(1-methylethyl)[1,2,4]triazolo[1,5-a]pyrimidin-7(4H)-one] |
| 4.67 | COC(=O)Cc1c(C)[nH]c2ncnn2c1=O [Example 8-7, methyl (5-methyl-7-oxo-4,7-dihydro[1,2,4]triazolo[1,5-a]pyrimidin-6-yl)acetate] |
| 4.50 | CCc1[nH]c2ncnn2c(=O)c1C [Example 8-18, 5-ethyl-6-methyl[1,2,4]triazolo[1,5-a]pyrimidin-7(4H)-one] |
| 7.26 | COc1cccc(-c2[nH]c3ncnn3c(=O)c2C(C)C)c1 [Example 11-57, 5-(3-methoxyphenyl)-6-(1-methylethyl) [1,2,4]triazolo[1,5-a]pyrimidin-7(4H)-one] |
| 5.39 | O=c1cc(-c2ccoc2)[nH]c2ncnn12 [Example 8-21, 5-furan-3-yl[1,2,4]triazolo[1,5-a]pyrimidin-7(4H)-one] |
| 5.89 | O=c1cc(-c2ccc(F)cc2)[nH]c2ncnn12 [Example 8-8, 5-(4-fluorophenyl)[1,2,4]triazolo[1,5-a]pyrimidin-7(4H)-one] |
| 8.16 | CC(C)c1c(-c2cnn(CCN3CCOCC3)c2)[nH]c2ncnn2c1=O [Example 11-52, 6-(1-methylethyl)-5-[1-(2-morpholin-4-ylethyl)-1H-pyrazol-4-yl][1,2,4]triazolo[1,5-a]pyrimidin-7(4H)-one] |
| 8.16 | CC(C)c1c(-c2ccc3c(c2)CC(=O)N3)[nH]c2ncnn2c1=O [Example 11-123, 6-(1-methylethyl)-5-(2-oxo-2,3-dihydro-1H-indol-5-yl)[1,2,4]triazolo[1,5-a]pyrimidin-7(4H)-one] |
| 7.70 | CC(C)c1c(-c2ccc(N3CCCC3)cc2)[nH]c2ncnn2c1=O [Example 11-94, 6-(1-methylethyl)-5-(4-pyrrolidin-1-ylphenyl)[1,2,4]triazolo[1,5-a]pyrimidin-7(4H)-one] |
| 4.96 | Cc1noc(C)c1-c1[nH]c2ncnn2c(=O)c1C(C)C [Example 11-34, 5-(3,5-dimethylisoxazol-4-yl)-6-(1-methylethyl)[1,2,4]triazolo[1,5-a]pyrimidin-7(4H)-one] |
| 7.67 | CC(C)c1c(-c2cccc(C#N)c2)[nH]c2ncnn2c1=O [Example 11-37, 3-[6-(1-methylethyl)-7-oxo-4,7-dihydro[1,2,4]triazolo[1,5-a]pyrimidin-5-yl]benzonitrile] |
| 5.61 | O=c1cc(-c2cccc(F)c2)[nH]c2ncnn12 [Example 8-30, 5-(3-fluorophenyl)[1,2,4]triazolo[1,5-a]pyrimidin-7(4H)-one] |
| 6.40 | CC(C)c1c(C2=CCCCC2)[nH]c2ncnn2c1=O [Example 11-29, 5-cyclohex-1-en-1-yl-6-(1-methylethyl)[1,2,4]triazolo[1,5-a]pyrimidin-7(4H)-one] |
| 8.24 | CC(C)c1c(-c2cnn(C3CC3)c2)[nH]c2ncnn2c1=O [Example 11-18, 5-(1-cyclopropyl-1H-pyrazol-4-yl)-6-(1-methylethyl)[1,2,4]triazolo[1,5-a]pyrimidin-7(4H)-one] |
| 6.91 | Cc1csc(-c2[nH]c3ncnn3c(=O)c2C(C)C)c1 [Example 11-115, 6-(1-methylethyl)-5-(4-methylthiophen-2-yl)[1,2,4]triazolo[1,5-a]pyrimidin-7(4H)-one] |

— patent US10975084B2, “KDM5 inhibitors” (Merck Sharp & Dohme Corp., priority 2016, dated 2021)
